Assay results taken from the supplement of paper PMC10307832.

What was measured:
Experiment in all cases: relative viability (nuclei count vs DMSO), 5 days (fraction); higher = more cells survive
[1] = compound: CC1=C(C(=NN1)C)CC2=C(C3=C(S2)N(C(=O)N(C3=O)C)CC(C)C)C(=O)N4C[C@@H](CO4)O + COc1cc2c(Oc3ccc(NC(=O)C4(C(=O)Nc5ccc(F)cc5)CC4)cc3F)ccnc2cc1OCCCN1CCOCC1 [Foretinib] (partner 0.25 µM)
Summary of the method: (§1)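 For relative viability, nuclei counts in treated wells were divided by those in vehicle wells. Lung cancer cell lines had been pin-tool dosed in 1536-well plates the day after seeding and cultured for 5 days, then fixed and stained in one step (final 0.05% Triton X-100, 1% formaldehyde, 1 ug/ml Hoechst) and imaged at 4×. Doses were one drug alone or a fixed anchor-drug dose plus five library-drug doses (not always all listed) in √10 steps, and values are duplicate-plate medians.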

[2] = compound: CC1=C(C(=NN1)C)CC2=C(C3=C(S2)N(C(=O)N(C3=O)C)CC(C)C)C(=O)N4C[C@@H](CO4)O + CS(=O)(=O)N1CCN(Cc2cc3nc(-c4cccc5[nH]ncc45)nc(N4CCOCC4)c3s2)CC1 [Pictilisib] (partner 1 µM)
Summary of the method: as §1

IDH-C35 + Tozasertib = compound: Cc1ccccc1C(C(=O)NC1CCCCC1)N(C(=O)Cn1ccnc1C)c1cccc(F)c1 [IDH-C35] + Cc1cc(Nc2cc(N3CCN(C)CC3)nc(Sc3ccc(NC(=O)C4CC4)cc3)n2)n[nH]1 [Tozasertib] (partner 0.1 µM)
Summary of the method: as §1

IDH-C35 + Olaparib = compound: Cc1ccccc1C(C(=O)NC1CCCCC1)N(C(=O)Cn1ccnc1C)c1cccc(F)c1 [IDH-C35] + O=C(c1cc(Cc2n[nH]c(=O)c3ccccc23)ccc1F)N1CCN(C(=O)C2CC2)CC1 [Olaparib] (partner 8 µM)
Summary of the method: as §1

Row | Cell Line | relative viability ([1]; first compound 0.0025 µM) | relative viability ([1]; first compound 0.007906 µM) | relative viability ([1]; first compound 0.025 µM) | relative viability ([1]; first compound 0.07906 µM) | relative viability ([1]; first compound 0.25 µM) | relative viability ([2]; first compound 0.0025 µM) | relative viability ([2]; first compound 0.007906 µM) | relative viability ([2]; first compound 0.025 µM) | relative viability ([2]; first compound 0.07906 µM) | relative viability ([2]; first compound 0.25 µM) | relative viability (IDH-C35 + Tozasertib; first compound 0.08 µM) | relative viability (IDH-C35 + Tozasertib; first compound 0.253 µM) | relative viability (IDH-C35 + Tozasertib; first compound 0.8 µM) | relative viability (IDH-C35 + Tozasertib; first compound 2.53 µM) | relative viability (IDH-C35 + Tozasertib; first compound 8 µM) | relative viability (IDH-C35 + Olaparib; first compound 0.08 µM) | relative viability (IDH-C35 + Olaparib; first compound 0.253 µM) | relative viability (IDH-C35 + Olaparib; first compound 0.8 µM) | relative viability (IDH-C35 + Olaparib; first compound 2.53 µM) | relative viability (IDH-C35 + Olaparib; first compound 8 µM)
1 | LXF-289 | 0.963 | 0.926 | 1.02 | 0.994 | 1.03 | 0.862 | 0.82 | 0.779 | 0.804 | 0.826 | 0.17 | 0.173 | 0.201 | 0.209 | 0.166 | 1.1 | 0.996 | 1.03 | 1.01 | 1.08
2 | ABC-1 | 1.02 | 1.06 | 0.955 | 1.07 | 1 | 0.874 | 0.844 | 0.693 | 0.948 | 0.737 | 0.188 | 0.171 | 0.188 | 0.146 | 0.176 | 0.668 | 1.04 | 0.77 | 0.819 | 0.906
3 | NCI-H650 | 1.07 | 0.937 | 0.938 | 0.977 | 1.08 | 0.898 | 0.826 | 0.819 | 0.824 | 0.926 | 0.669 | 0.765 | 0.768 | – | 0.698 | 0.334 | 0.393 | 0.366 | – | 0.376
4 | NCI-H1650 | 1.18 | 1.26 | 1.52 | 1.18 | 1.05 | 0.575 | 0.587 | 0.714 | 0.67 | 0.708 | 0.407 | 0.393 | 0.378 | 0.444 | 0.355 | 0.783 | 0.65 | 0.769 | 0.588 | 0.757
5 | NCI-H2085 | 0.965 | 0.803 | 0.957 | 0.796 | 0.827 | 0.527 | 0.455 | 0.449 | 0.468 | 0.399 | 0.793 | 0.845 | 0.751 | 0.793 | 0.718 | 0.807 | 0.776 | 0.77 | 0.789 | 0.712
6 | NCI-H1793 | 0.67 | 0.784 | 0.732 | 0.665 | 0.605 | 0.308 | 0.395 | 0.166 | 0.226 | 0.272 | 0.353 | 0.415 | 0.329 | – | 0.296 | 0.934 | 0.903 | 0.932 | 0.862 | 0.859
7 | LC-2-ad | 0.897 | 0.836 | 0.911 | 1.06 | 1.08 | 0.558 | 0.426 | 0.716 | 0.622 | 0.467 | 0.472 | 0.435 | 0.503 | – | 0.428 | 0.728 | 0.707 | 0.715 | 0.729 | 0.702
8 | COR-L 105 | 1.1 | 0.899 | 0.974 | 1.03 | 1.06 | 0.406 | 0.445 | 0.376 | 0.398 | 0.356 | 0.351 | 0.313 | 0.386 | 0.383 | 0.337 | 0.606 | 0.681 | 0.713 | 0.614 | 0.714
